Measurements as given in patent publication US20050107447A1, “Novel lysophosphatidic acid receptor agonists and antagonists” (priority 2003, published 2005).

These molecules were tested against LPA1 (Mus musculus, UniProt P61793) (assay: GTP[γ35S] binding, LPA1 transfected HEK293T (or RH7777) cell membranes). Details: not given.
Assay type: biochemical
Set-up: expressed in transfected cells; host or cells: HEK293T (transient, with G protein plasmids); some results from RH7777 rat hepatoma membranes transfected with LPA1 DNA only
Experimental: (§1) The appropriate receptor plasmid DNA (encoding mouse LPA1, human LPA2 or human LPA3) was mixed with equal amounts of expression plasmids (pcDNA3) encoding a mutated (C351F) rat Gi2a, cow β1, and γ2 proteins and these DNAs were used to transfect monolayers of HEK293T cells (where ‘T’ indicates expression of the SV-40 virus large T antigen) using the calcium phosphate precipitate method. After about 60 hours, cells were harvested, membranes were prepared, aliquoted and stored at −70° C. until use.
(§2) The GTP[35 γS] assay was performed as described by us previously. Membranes containing 5 ug of protein were incubated in 0.1 ml GTP-binding buffer (in mM: HEPES 50, NaCl 100, MgCl2 10, pH7.5) containing […], […], 0.1 nM GTP[35 γS] (1200 Ci/mmol), and indicated lipid(s) for 30 minutes at 30° C. Samples were analyzed for membrane-bound radionuclide using a Brandel Cell Harvester (Gaithersburg, Md.).
(§3) The X-intercept of the linear transformation is equal to the inverse log of the κ1.
(§4) Membranes prepared from these cells are used to measure GTPγ[^35S] binding as a function of test compound concentration. The resulting dose-response curves provide relative potency (EC50) and efficacy, (Emax) for the test compounds.

Chain of LPA1 (P61793 whole entry): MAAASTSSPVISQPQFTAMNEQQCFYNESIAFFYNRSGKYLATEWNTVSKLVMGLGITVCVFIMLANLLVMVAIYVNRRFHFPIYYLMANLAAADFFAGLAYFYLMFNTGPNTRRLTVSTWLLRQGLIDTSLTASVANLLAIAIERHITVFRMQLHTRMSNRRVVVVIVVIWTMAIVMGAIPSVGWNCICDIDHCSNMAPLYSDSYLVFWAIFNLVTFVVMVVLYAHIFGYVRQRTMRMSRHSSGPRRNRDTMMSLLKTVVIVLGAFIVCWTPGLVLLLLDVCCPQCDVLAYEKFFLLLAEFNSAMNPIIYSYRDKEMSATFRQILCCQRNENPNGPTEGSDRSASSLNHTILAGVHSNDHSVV

| Molecule | Emax [%] |
| --- | --- |
| CCCCCCCC/C=C\CCCCCCCC(=O)N[C@H](CN)COP(=O)(O)O [VPC12178] | 98.7 |
| CCCCCCCC/C=C\CCCCCCCC(=O)N[C@@H](COP(=O)(O)O)C(=O)OC [VPC31139] | 66.2 |
| CCCCCCCC/C=C\CCCCCCCC(=O)N[C@H](CO)COP(=O)(O)O [VPC31143] | 161 |
| CCCCCCCC/C=C\CCCCCCCC(=O)N[C@@H](CO)COP(=O)(O)O [VPC31144] | 91.1 |
| CCCCCCCC/C=C\CCCCCCCC(=O)N[C@H](COP(=O)(O)O)C(=O)OC [VPC31180] | 50.6 |
| CCCCCCCC/C=C\CCCCCCCC(=O)N[C@H](COP(=O)(O)O)C(C)C [compound 40105] | 14.8 |

Same assay, conditions: agonist, GTP[γ35S] binding

| Molecule | EC50 [nM] |
| --- | --- |
| CCCCCCCC/C=C\CCCCCCCC(=O)N[C@H](CN)COP(=O)(O)O [VPC12178] | 4.9 |
| CCCCCCCC/C=C\CCCCCCCC(=O)N[C@H](COP(=O)(O)O)Cc1ccccc1 [VPC12255] | > 5000 |
| CCCCCCCC/C=C\CCCCCCCC(=O)N[C@@H](COP(=O)(O)O)C(=O)OC [VPC31139] | 18.5 |
| CCCCCCCC/C=C\CCCCCCCC(=O)N[C@H](CO)COP(=O)(O)O [VPC31143] | 7.9 |
| CCCCCCCC/C=C\CCCCCCCC(=O)N[C@@H](CO)COP(=O)(O)O [VPC31144] | > 5000 |
| CCCCCCCC/C=C\CCCCCCCC(=O)N[C@H](COP(=O)(O)O)C(=O)OC [VPC31180] | 1210 |
| CCCCCCCC/C=C\CCCCCCCC(=O)N[C@H](COP(=O)(O)O)C(C)C [compound 40105] | > 5000 |

Same assay, conditions: compared to LPA

| Molecule | Agonist activity/efficacy at LPA1 |
| --- | --- |
| CCCCCCCC/C=C\CCCCCCCC(=O)N[C@@H](COP(=O)(O)O)Cc1ccc(OCc2ccc(CCCCC)cc2)cc1 [VPC31162] | agonist |

Same assay, conditions: vs 1-oleoyl LPA

| Molecule | Potency at LPA1 relative to LPA |
| --- | --- |
| CCCCCCCC/C=C\CCCCCCCC(=O)N[C@H](CN)COP(=O)(O)O [VPC12178] | more potent than 1-oleoyl LPA |
| CCCCCCCC/C=C\CCCCCCCC(=O)N[C@H](CO)COP(=O)(O)O [VPC31143] | more potent than 1-oleoyl LPA |

What follows are molecules tested against LPA2 (Homo sapiens, UniProt Q9HBW0) (assay: GTP[γ35S] binding, LPA2 transfected HEK293T cell membranes). Details: not given.
Assay type: biochemical
Set-up: expressed in transfected cells; host or cells: HEK293T (transient, calcium phosphate)
Experimental: as §1, §2, §3, §4

Chain of LPA2 (Q9HBW0 whole entry): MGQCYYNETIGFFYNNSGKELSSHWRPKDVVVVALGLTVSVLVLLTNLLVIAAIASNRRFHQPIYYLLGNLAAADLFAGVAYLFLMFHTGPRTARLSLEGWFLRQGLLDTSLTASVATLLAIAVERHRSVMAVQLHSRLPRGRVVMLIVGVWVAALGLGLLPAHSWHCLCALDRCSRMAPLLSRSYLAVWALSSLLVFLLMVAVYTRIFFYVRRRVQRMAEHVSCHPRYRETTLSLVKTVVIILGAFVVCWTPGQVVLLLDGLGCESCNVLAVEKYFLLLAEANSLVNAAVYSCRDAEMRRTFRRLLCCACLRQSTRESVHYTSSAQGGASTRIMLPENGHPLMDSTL

| Molecule | Emax [%] | Antagonism of LPA-induced GTP[γ35S] binding at LPA2 |
| --- | --- | --- |
| CCCCCCCC/C=C\CCCCCCCC(=O)N[C@H](CN)COP(=O)(O)O [VPC12178] | 103 | – |
| CCCCCCCC/C=C\CCCCCCCC(=O)N[C@@H](COP(=O)(O)O)C(=O)OC [VPC31139] | 91.3 | – |
| CCCCCCCC/C=C\CCCCCCCC(=O)N[C@H](CO)COP(=O)(O)O [VPC31143] | 105 | – |
| CCCCCCCC/C=C\CCCCCCCC(=O)N[C@@H](CO)COP(=O)(O)O [VPC31144] | 77.3 | – |
| CCCCCCCC/C=C\CCCCCCCC(=O)N[C@@H](COP(=O)(O)O)Cc1ccc(OCc2ccc(CCCCC)cc2)cc1 [VPC31162] | – | antagonist activity |
| CCCCCCCC/C=C\CCCCCCCC(=O)N[C@H](COP(=O)(O)O)C(=O)OC [VPC31180] | 60.2 | – |
| CCCCCCCC/C=C\CCCCCCCC(=O)N[C@H](COP(=O)(O)O)C(C)C [compound 40105] | 27.6 | – |

Same assay, conditions: agonist, GTP[γ35S] binding

| Molecule | EC50 [nM] |
| --- | --- |
| 1-acyl, 2-hydroxyl-sn-glycerol-3-phosphate [LPA, reference compound] | 6.8 |
| CCCCCCCC/C=C\CCCCCCCC(=O)N[C@H](CN)COP(=O)(O)O [VPC12178] | 50.3 |
| CCCCCCCC/C=C\CCCCCCCC(=O)N[C@H](COP(=O)(O)O)Cc1ccccc1 [VPC12255] | > 5000 |
| CCCCCCCC/C=C\CCCCCCCC(=O)N[C@@H](COP(=O)(O)O)C(=O)OC [VPC31139] | 29.2 |
| CCCCCCCC/C=C\CCCCCCCC(=O)N[C@H](CO)COP(=O)(O)O [VPC31143] | 116 |
| CCCCCCCC/C=C\CCCCCCCC(=O)N[C@@H](CO)COP(=O)(O)O [VPC31144] | 2640 |
| CCCCCCCC/C=C\CCCCCCCC(=O)N[C@H](COP(=O)(O)O)C(=O)OC [VPC31180] | 3460 |
| CCCCCCCC/C=C\CCCCCCCC(=O)N[C@H](COP(=O)(O)O)C(C)C [compound 40105] | > 5000 |

These molecules were tested against T1, LPA3 (Homo sapiens, UniProt Q9UBY5) (assay: GTP[γ35S] binding, LPA3 transfected HEK293T cell membranes). Details: not given.
T1 sequence (Q9UBY5 1-353): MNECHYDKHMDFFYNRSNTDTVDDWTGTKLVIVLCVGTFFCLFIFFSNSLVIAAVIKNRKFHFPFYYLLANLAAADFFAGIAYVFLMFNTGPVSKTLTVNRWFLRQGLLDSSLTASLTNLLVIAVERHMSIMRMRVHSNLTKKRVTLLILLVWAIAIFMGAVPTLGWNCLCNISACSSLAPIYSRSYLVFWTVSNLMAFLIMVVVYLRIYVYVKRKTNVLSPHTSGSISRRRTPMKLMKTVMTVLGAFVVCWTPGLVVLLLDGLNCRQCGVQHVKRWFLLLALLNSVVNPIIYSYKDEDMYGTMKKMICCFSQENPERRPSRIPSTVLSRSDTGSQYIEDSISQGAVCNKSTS
Assay type: biochemical
Set-up: expressed in transfected cells; host or cells: HEK293T (transient, calcium phosphate)
Experimental: as §1, §2, §3, §4

| Molecule | Emax [%] |
| --- | --- |
| CCCCCCCC/C=C\CCCCCCCC(=O)N[C@H](CN)COP(=O)(O)O [VPC12178] | 103 |
| CCCCCCCC/C=C\CCCCCCCC(=O)N[C@@H](COP(=O)(O)O)C(=O)OC [VPC31139] | 84.4 |
| CCCCCCCC/C=C\CCCCCCCC(=O)N[C@H](CO)COP(=O)(O)O [VPC31143] | 107 |
| CCCCCCCC/C=C\CCCCCCCC(=O)N[C@H](COP(=O)(O)O)C(=O)OC [VPC31180] | 3.8 |
| CCCCCCCC/C=C\CCCCCCCC(=O)N[C@H](COP(=O)(O)O)C(C)C [compound 40105] | 27.7 |

Same assay, conditions: LPA = 100

| Molecule | LPA3 Emax |
| --- | --- |
| 1-acyl, 2-hydroxyl-sn-glycerol-3-phosphate [LPA, reference compound] | 100 |

Same assay, conditions: agonist, GTP[γ35S] binding

| Molecule | EC50 [nM] |
| --- | --- |
| 1-acyl, 2-hydroxyl-sn-glycerol-3-phosphate [LPA, reference compound] | 262 |
| CCCCCCCC/C=C\CCCCCCCC(=O)N[C@H](CN)COP(=O)(O)O [VPC12178] | 684 |
| CCCCCCCC/C=C\CCCCCCCC(=O)N[C@H](COP(=O)(O)O)Cc1ccccc1 [VPC12255] | > 5000 |
| CCCCCCCC/C=C\CCCCCCCC(=O)N[C@@H](COP(=O)(O)O)C(=O)OC [VPC31139] | 1480 |
| CCCCCCCC/C=C\CCCCCCCC(=O)N[C@H](CO)COP(=O)(O)O [VPC31143] | 322 |
| CCCCCCCC/C=C\CCCCCCCC(=O)N[C@@H](CO)COP(=O)(O)O [VPC31144] | 4350 |
| CCCCCCCC/C=C\CCCCCCCC(=O)N[C@H](COP(=O)(O)O)C(=O)OC [VPC31180] | > 5000 |
| CCCCCCCC/C=C\CCCCCCCC(=O)N[C@H](COP(=O)(O)O)C(C)C [compound 40105] | > 5000 |

Same assay, conditions: compared to LPA

| Molecule | Agonist activity/efficacy at LPA3 |
| --- | --- |
| CCCCCCCC/C=C\CCCCCCCC(=O)N[C@@H](COP(=O)(O)O)Cc1ccc(OCc2ccc(CCCCC)cc2)cc1 [VPC31162] | agonist |
